Laboratory results taken from patent publication US12649751B2 (Arcus Biosciences, Inc., priority 2022, dated 2026).

These compounds were tested against HPK1 (Homo sapiens, UniProt Q92918) (assay: HPK1 Biochemical Assay (ADP-Glo luminescence; low ATP 10 μM or high ATP 200 μM)). Conditions: 2 nM HPK1, 10 μM ATP; read-out: Biochemical Potency (low ATP).
Sequence of HPK1 (Q92918 whole entry, species assumed): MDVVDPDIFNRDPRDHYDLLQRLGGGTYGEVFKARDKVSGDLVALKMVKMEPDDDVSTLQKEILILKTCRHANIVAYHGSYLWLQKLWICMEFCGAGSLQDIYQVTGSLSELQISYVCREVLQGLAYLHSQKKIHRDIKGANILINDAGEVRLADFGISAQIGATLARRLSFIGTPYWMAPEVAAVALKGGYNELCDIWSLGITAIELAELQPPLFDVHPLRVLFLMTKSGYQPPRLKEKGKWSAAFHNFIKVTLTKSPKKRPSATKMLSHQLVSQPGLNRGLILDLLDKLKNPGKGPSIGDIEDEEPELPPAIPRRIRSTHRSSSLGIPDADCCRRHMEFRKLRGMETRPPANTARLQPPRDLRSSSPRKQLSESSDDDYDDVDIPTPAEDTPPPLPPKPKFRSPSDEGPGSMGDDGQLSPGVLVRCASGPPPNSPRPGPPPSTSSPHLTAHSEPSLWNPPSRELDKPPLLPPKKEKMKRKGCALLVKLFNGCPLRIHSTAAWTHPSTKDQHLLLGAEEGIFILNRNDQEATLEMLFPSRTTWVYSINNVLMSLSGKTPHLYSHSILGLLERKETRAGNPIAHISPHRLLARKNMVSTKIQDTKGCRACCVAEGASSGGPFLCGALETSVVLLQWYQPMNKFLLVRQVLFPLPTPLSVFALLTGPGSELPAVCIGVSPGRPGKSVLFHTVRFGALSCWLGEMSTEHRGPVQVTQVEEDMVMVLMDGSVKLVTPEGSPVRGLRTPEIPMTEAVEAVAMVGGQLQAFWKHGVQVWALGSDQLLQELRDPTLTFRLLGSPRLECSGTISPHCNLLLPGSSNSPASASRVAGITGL

SMILES	IC50
Cc1ccc(Nc2cc3nc(-c4cnn(C5CCOC5)c4)sc3cn2)nc1CN1CCCC1 (stereo not drawn) [Example 38, 5-Methyl-N-{2-[1-(oxolan-3-yl)-1H-pyrazol-4-yl]-[1,3]thiazolo[5,4-c]pyridin-6-yl}-6-[(pyrrolidin-1-yl)methyl]pyridin-2-amine]	< 100 nM
Cc1ccc(Nc2cc3nc(-c4cccnc4)sc3cn2)nc1CN1CCCC1 [Example 53, 5-Methyl-N-[2-(pyridin-3-yl)-[1,3]thiazolo[5,4-c]pyridin-6-yl]-6-[(pyrrolidin-1-yl)methyl]pyridin-2-amine]	< 100 nM
Cc1cccnc1-c1nc2cc(Nc3ccc(C4CCOCC4)c(C4CCNC4)n3)ncc2s1 (stereo not drawn) [Example 283, N-[2-(3-Methylpyridin-2-yl)-[1,3]thiazolo[5,4-c]pyridin-6-yl]-5-(oxan-4-yl)-6-(pyrrolidin-3-yl)pyridin-2-amine]	< 100 nM
Cc1cccnc1-c1nc2cc(Nc3ccc(N4CCC(F)(F)C4)c(C(C)(C)N)n3)ncc2s1 [Example 272, 6-(2-Aminopropan-2-yl)-5-(3,3-difluoropyrrolidin-1-yl)-N-[2-(3-methylpyridin-2-yl)-[1,3]thiazolo[5,4-c]pyridin-6-yl]pyridin-2-amine]	< 100 nM
Cc1cccnc1-c1nc2cc(Nc3ccc(N4CCC(F)(F)C4)c(N4C[C@@H]5C[C@H]4CN5C)n3)ncc2s1 [Example 281, 5-(3,3-Difluoropyrrolidin-1-yl)-6-[(1S,4S)-5-methyl-2,5-diazabicyclo[2.2.1]heptan-2-yl]-N-[2-(3-methylpyridin-2-yl)-[1,3]thiazolo[5,4-c]pyridin-6-yl]pyridin-2-amine]	< 100 nM
Cc1cc(Nc2cc3nc(-c4ccc(S(C)(=O)=O)cc4)sc3cn2)nc(O[C@H]2CCNC2)c1 [Example 186, N-[2-(4-Methanesulfonylphenyl)-[1,3]thiazolo[5,4-c]pyridin-6-yl]-4-methyl-6-[(3S)-pyrrolidin-3-yloxy]pyridin-2-amine]	< 100 nM
Cc1cc(Nc2cc3nc(-c4ccc(C#N)cc4)sc3cn2)nc(O[C@H]2CCNC2)c1 [Example 187, 4-(6-{[4-Methyl-6-(pyrrolidin-3-yloxy)pyridin-2-yl]amino}-[1,3]thiazolo[5,4-c]pyridin-2-yl)benzonitrile]	< 100 nM
CC(C)c1ccc(Nc2cc3nc(-n4cccn4)sc3cn2)nc1CN1CCCC1 [Example 228, 5-(Propan-2-yl)-N-[2-(1H-pyrazol-1-yl)-[1,3]thiazolo[5,4-c]pyridin-6-yl]-6-[(pyrrolidin-1-yl)methyl]pyridin-2-amine]	< 100 nM
Cc1nccn1-c1nc2cc(Nc3ccc(C4CCOCC4)c(CN4CCCC4)n3)ncc2s1 [Example 239, N-[2-(2-Methyl-1H-imidazol-1-yl)-[1,3]thiazolo[5,4-c]pyridin-6-yl]-5-(oxan-4-yl)-6-[(pyrrolidin-1-yl)methyl]pyridin-2-amine]	< 100 nM
Cc1cc(Nc2cc3nc(-c4ccc(F)cc4)sc3cn2)nc(O[C@H]2CCNC2)c1 [Example 188, N-[2-(4-Fluorophenyl)-[1,3]thiazolo[5,4-c]pyridin-6-yl]-4-methyl-6-[(3S)-pyrrolidin-3-yloxy]pyridin-2-amine]	< 100 nM
CN1C[C@@H]2C[C@H]1CN2c1cncc(Nc2cc3nc(-c4cc(N5CC[C@@H](F)C5)ccn4)sc3cn2)n1 [Example 125, N-(2-{4-[(3R)-3-Dluoropyrrolidin-1-yl]pyridin-2-yl}-[1,3]thiazolo[5,4-c]pyridin-6-yl)-6-[(1S,4S)-5-methyl-2,5-diazabicyclo[2.2.1]heptan-2-yl]pyrazin-2-amine]	< 100 nM
Cc1cccnc1-c1nc2cc(Nc3ccc(C(C)C)c(CN4CCCC4)n3)ncc2s1 [Example 226, N-[2-(3-Methylpyridin-2-yl)-[1,3]thiazolo[5,4-c]pyridin-6-yl]-5-(propan-2-yl)-6-[(pyrrolidin-1-yl)methyl]pyridin-2-amine]	< 100 nM
Cc1ccc(Nc2cc3nc(-n4nccc4C)sc3cn2)nc1N1C[C@@H](N)C[C@H]1CO [Example 201, [(2S,4S)-4-Amino-1-(3-methyl-6-{[2-(5-methyl-1H-pyrazol-1-yl)-[1,3]thiazolo[5,4-c]pyridin-6-yl]amino}pyridin-2-yl)pyrrolidin-2-yl]methanol]	< 100 nM
O[C@H]1CCN(c2nc3cc(Nc4ccc(C5CCOCC5)c(CN5CCCC5)n4)ncc3s2)C1 [Example 233, (3S)-1-(6-{[5-(Oxan-4-yl)-6-[(pyrrolidin-1-yl)methyl]pyridin-2-yl]amino}-[1,3]thiazolo[5,4-c]pyridin-2-yl)pyrrolidin-3-ol]	100 to 1000 nM
Cc1cc(Nc2cc3nc(N4CCOCC4)sc3cn2)nc(O[C@H]2CCNC2)c1 [Example 191, 4-Methyl-N-[2-(morpholin-4-yl)-[1,3]thiazolo[5,4-c]pyridin-6-yl]-6-((3S)-pyrrolidin-3-yloxy)pyridin-2-amine]	< 100 nM
Cc1ccc(Nc2cc3nc(-c4cnn(C)c4)sc3cn2)nc1CN1CCCC1 [Example 51, 5-Methyl-N-[2-(1-methyl-1H-pyrazol-4-yl)-[1,3]thiazolo[5,4-c]pyridin-6-yl]-6-[(pyrrolidin-1-yl)methyl]pyridin-2-amine]	< 100 nM
Cc1ccncc1-c1nc2cc(Nc3ccc(C)c(O[C@H]4CCNC4)n3)ncc2s1 [Example 173, 5-Methyl-N-[2-(4-methylpyridin-3-yl)-[1,3]thiazolo[5,4-c]pyridin-6-yl]-6-[(3S)-pyrrolidin-3-yloxy]pyridin-2-amine]	< 100 nM
Cc1cccnc1-c1nc2cc(Nc3ccc(C)c(N4C[C@@H](N)C[C@@H]4CO)n3)ncc2s1 [Example 68, [(4S)-4-Amino-1-(3-methyl-6-{[2-(3-methylpyridin-2-yl)-[1,3]thiazolo[5,4-c]pyridin-6-yl]amino}pyridin-2-yl)pyrrolidin-2-yl]methanol]	< 100 nM
Cc1cc(C)n(-c2nc3cc(Nc4ccc(N5CCOCC5)c(CN5CCCC5)n4)ncc3s2)n1 [Example 196, N-[2-(3,5-Dimethyl-1H-pyrazol-1-yl)-[1,3]thiazolo[5,4-c]pyridin-6-yl]-5-(morpholin-4-yl)-6-[(pyrrolidin-1-yl)methyl]pyridin-2-amine]	< 100 nM
CN1C[C@@H]2C[C@H]1CN2c1nccc(Nc2cc3nc(-c4ccnc(C(C)(C)O)c4)sc3cn2)n1 [Example 121, 2-{4-[6-({2-[(1S,4S)-5-Methyl-2,5-diazabicyclo[2.2.1]heptan-2-yl]pyrimidin-4-yl}amino)-[1,3]thiazolo[5,4-c]pyridin-2-yl]pyridin-2-yl}propan-2-ol]	< 100 nM

Continued, values first:

IC50	SMILES
< 100 nM	Fc1ccc(-c2nc3cc(Nc4ccc(N5CCOCC5)c(CN5CCCC5)n4)ncc3s2)cc1 [Example 22, N-[2-(4-Fluorophenyl)-[1,3]thiazolo[5,4-c]pyridin-6-yl]-5-(morpholin-4-yl)-6-[(pyrrolidin-1-yl)methyl]pyridin-2-amine]
< 100 nM	CN1C[C@@H]2C[C@H]1CN2c1cncc(Nc2cc3nc(-c4cc(N5CC[C@H](F)C5)ccn4)sc3cn2)n1 [Example 124, N-(2-{4-[(3S)-3-Fluoropyrrolidin-1-yl]pyridin-2-yl}-[1,3]thiazolo[5,4-c]pyridin-6-yl)-6-[(1S,4S)-5-methyl-2,5-diazabicyclo[2.2.1]heptan-2-yl]pyrazin-2-amine]
< 100 nM	Cc1ccc(Nc2cc3nc(-c4ncccc4C)sc3cn2)nc1CN1CCCC1(C)C [Example 47, 6-[(2,2-Dimethylpyrrolidin-1-yl)methyl]-5-methyl-N-[2-(3-methylpyridin-2-yl)-[1,3]thiazolo[5,4-c]pyridin-6-yl]pyridin-2-amine]
< 100 nM	Cc1cc(Nc2cc3nc(-c4ccnc(C)c4)sc3cn2)nc(OC2CNCC2(F)F)c1 (stereo not drawn) [Example 171, 6-[(4,4-Difluoropyrrolidin-3-yl)oxy]-4-methyl-N-[2-(2-methylpyridin-4-yl)-[1,3]thiazolo[5,4-c]pyridin-6-yl]pyridin-2-amine]
< 100 nM	Cc1ccc(Nc2cc3nc(-n4nccc4C)sc3cn2)nc1N1CCNCC1 [Example 204, 5-Methyl-N-[2-(5-methyl-1H-pyrazol-1-yl)-[1,3]thiazolo[5,4-c]pyridin-6-yl]-6-(piperazin-1-yl)pyridin-2-amine]
< 100 nM	CN1C[C@@H]2C[C@H]1CN2c1cncc(Nc2cc3nc(-c4ccnc(C(C)(C)O)c4)sc3cn2)n1 [Example 151, 2-{4-[6-({6-[(1S,4S)-5-Methyl-2,5-diazabicyclo[2.2.1]heptan-2-yl]pyrazin-2-yl}amino)-[1,3]thiazolo[5,4-c]pyridin-2-yl]pyridin-2-yl}propan-2-ol]
< 100 nM	Cc1ccc(Nc2cc3nc(-c4ncccc4C(C)C)sc3cn2)nc1CN1CCCC1 [Example 50, 5-Methyl-N-{2-[3-(propan-2-yl)pyridin-2-yl]-[1,3]thiazolo[5,4-c]pyridin-6-yl}-6-[(pyrrolidin-1-yl)methyl]pyridin-2-amine]
< 100 nM	Cc1cc(Nc2cc3nc(-c4ccnc(N)c4)sc3cn2)nc(O[C@H]2CCNC2)c1 [Example 170, N-[2-(2-Aminopyridin-4-yl)-[1,3]thiazolo[5,4-c]pyridin-6-yl]-4-methyl-6-[(3S)-pyrrolidin-3-yloxy]pyridin-2-amine]
100 to 1000 nM	Cc1ccc(Nc2cc3nc(-c4cnccn4)sc3cn2)nc1CN1CCCC1 [Example 56, 5-Methyl-N-[2-(pyrazin-2-yl)-[1,3]thiazolo[5,4-c]pyridin-6-yl]-6-[(pyrrolidin-1-yl)methyl]pyridin-2-amine]
< 100 nM	CN(C)S(=O)(=O)c1cccc(-c2nc3cc(Nc4cccc(N5C[C@@H]6C[C@H]5CN6)n4)ncc3s2)c1 [Example 293]

Same assay, conditions: HPK1 ADP-Glo assay, high ATP (200 μM ATP, 5 nM HPK1); read-out: Biochemical Potency (high ATP)

IC50	SMILES
< 100 nM	Cc1cc(Nc2cc3nc(-c4cccc(C(=O)N(C)[C@@H]5CCOC5)c4)sc3cn2)nc(N2C[C@@H]3C[C@H]2CN3CCO)n1 [Example 559]

Same assay, conditions: HPK1 ADP-Glo assay, low ATP (10 μM ATP, 2 nM HPK1); read-out: Biochemical Potency (low ATP)

IC50	SMILES
< 100 nM	CN1C[C@@H]2C[C@H]1CN2c1nccc(Nc2cc3nc(-c4ccnc5c4cnn5C)sc3cn2)n1 [Example 411]
< 100 nM	CN1C[C@@H]2C[C@H]1CN2c1cncc(Nc2cc3nc(-c4cccc(C(=O)N5CC[C@H](F)C5)c4)sc3cn2)n1 [Example 417]
